Laboratory results taken from PubChem BioAssay AID588805 (The Scripps Research Institute Molecular Screening Center, 2011).
Activity calls are given as the source filed them. How the calls were made is not given here.

Columns and labels:
Experiment in all cases: ABHD10 inhibitor selectivity across serine hydrolases, late-stage follow-up, selectivity assay for PME-1 inhibitor project, cell-based, LC-MS/MS, ABPP-SILAC (AID 588805)
Abhd11 = settings: serine hydrolase panel, stronger effect = lower value
Abhd12 = settings: serine hydrolase panel, stronger effect = lower value
Abhd13 = settings: serine hydrolase panel, stronger effect = lower value
Ache = settings: serine hydrolase panel, stronger effect = lower value
Acot2 = settings: serine hydrolase panel, stronger effect = lower value
Acot7 = settings: serine hydrolase panel, stronger effect = lower value
Acot9 = settings: serine hydrolase panel, stronger effect = lower value
[1] = molecular target: Acyl-protein thioesterase 1 (Mus musculus) (UniProt P97823); settings: serine hydrolase panel, Lypla1, stronger effect = lower value
Apeh = settings: serine hydrolase panel, stronger effect = lower value
Bat5 = settings: serine hydrolase panel, stronger effect = lower value
Ctsa = settings: serine hydrolase panel, stronger effect = lower value
Ddhd2 = settings: serine hydrolase panel, stronger effect = lower value
[2] = molecular target: Diacylglycerol lipase-beta (Mus musculus) (UniProt Q91WC9); settings: serine hydrolase panel, Daglb, stronger effect = lower value
Dpp7 = settings: serine hydrolase panel, stronger effect = lower value
Dpp8 = settings: serine hydrolase panel, stronger effect = lower value
Dpp9 = settings: serine hydrolase panel, stronger effect = lower value
Esd = settings: serine hydrolase panel, stronger effect = lower value
Faah = settings: serine hydrolase panel, stronger effect = lower value
Fam108a = settings: serine hydrolase panel, stronger effect = lower value
Fam108b1 = settings: serine hydrolase panel, stronger effect = lower value
Fam108c1 = settings: serine hydrolase panel, stronger effect = lower value
Fasn = settings: serine hydrolase panel, stronger effect = lower value
Htra2 = settings: serine hydrolase panel, stronger effect = lower value
Iah1 = settings: serine hydrolase panel, stronger effect = lower value
Lactb = settings: serine hydrolase panel, stronger effect = lower value
Lipe = settings: serine hydrolase panel, stronger effect = lower value
Lypla2 = settings: serine hydrolase panel, stronger effect = lower value
Lyplal1 = settings: serine hydrolase panel, stronger effect = lower value
[3] = molecular target: Monoacylglycerol lipase ABHD6 (Mus musculus) (UniProt Q8R2Y0); settings: serine hydrolase panel, stronger effect = lower value
Nceh1 = settings: serine hydrolase panel, stronger effect = lower value
Pafah1b2 = settings: serine hydrolase panel, stronger effect = lower value
Pafah1b3 = settings: serine hydrolase panel, stronger effect = lower value
[4] = molecular target: Palmitoyl-protein thioesterase ABHD10, mitochondrial (Mus musculus) (UniProt Q6PE15); settings: serine hydrolase panel, stronger effect = lower value
Parl = settings: serine hydrolase panel, stronger effect = lower value
Pgap1 = settings: serine hydrolase panel, stronger effect = lower value
Pla2g15 = settings: serine hydrolase panel, stronger effect = lower value
Pla2g6 = settings: serine hydrolase panel, stronger effect = lower value
[5] = molecular target: Platelet-activating factor acetylhydrolase 2, cytoplasmic (Mus musculus) (UniProt Q8VDG7); settings: serine hydrolase panel, Pafah2, stronger effect = lower value
Pme1 = settings: serine hydrolase panel, stronger effect = lower value
Pnpla6 = settings: serine hydrolase panel, stronger effect = lower value
Pnpla7 = settings: serine hydrolase panel, stronger effect = lower value
Pnpla8 = settings: serine hydrolase panel, stronger effect = lower value
Ppt2 = settings: serine hydrolase panel, stronger effect = lower value
Prcp = settings: serine hydrolase panel, stronger effect = lower value
Prepl = settings: serine hydrolase panel, stronger effect = lower value
[6] = molecular target: Prolyl endopeptidase (Mus musculus) (UniProt Q9QUR6); settings: serine hydrolase panel, Prep, stronger effect = lower value
Qrsl1 = settings: serine hydrolase panel, stronger effect = lower value
Rbbp9 = settings: serine hydrolase panel, stronger effect = lower value
Sec23ip = settings: serine hydrolase panel, stronger effect = lower value
Serhl = settings: serine hydrolase panel, stronger effect = lower value

Chain of Acyl-protein thioesterase 1 (Mus musculus) (P97823 whole entry, looked up): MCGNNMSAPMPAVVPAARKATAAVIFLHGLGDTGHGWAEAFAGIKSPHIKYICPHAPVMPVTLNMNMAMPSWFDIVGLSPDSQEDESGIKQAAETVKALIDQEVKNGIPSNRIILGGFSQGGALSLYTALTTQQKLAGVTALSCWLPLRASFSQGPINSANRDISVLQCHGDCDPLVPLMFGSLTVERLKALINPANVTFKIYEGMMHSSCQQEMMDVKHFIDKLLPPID
Chain of Monoacylglycerol lipase ABHD6 (Mus musculus) (Q8R2Y0 whole entry, looked up): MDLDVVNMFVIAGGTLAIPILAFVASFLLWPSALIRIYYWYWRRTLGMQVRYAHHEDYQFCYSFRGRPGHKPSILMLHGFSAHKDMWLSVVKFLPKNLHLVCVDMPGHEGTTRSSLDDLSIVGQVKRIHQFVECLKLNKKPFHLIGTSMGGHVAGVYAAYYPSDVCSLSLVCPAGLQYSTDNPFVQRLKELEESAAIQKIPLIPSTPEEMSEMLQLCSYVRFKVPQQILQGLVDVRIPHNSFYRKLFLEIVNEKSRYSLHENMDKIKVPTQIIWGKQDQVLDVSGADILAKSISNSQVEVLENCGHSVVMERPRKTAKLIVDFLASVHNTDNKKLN
Chain of Platelet-activating factor acetylhydrolase 2, cytoplasmic (Mus musculus) (Q8VDG7 whole entry, looked up): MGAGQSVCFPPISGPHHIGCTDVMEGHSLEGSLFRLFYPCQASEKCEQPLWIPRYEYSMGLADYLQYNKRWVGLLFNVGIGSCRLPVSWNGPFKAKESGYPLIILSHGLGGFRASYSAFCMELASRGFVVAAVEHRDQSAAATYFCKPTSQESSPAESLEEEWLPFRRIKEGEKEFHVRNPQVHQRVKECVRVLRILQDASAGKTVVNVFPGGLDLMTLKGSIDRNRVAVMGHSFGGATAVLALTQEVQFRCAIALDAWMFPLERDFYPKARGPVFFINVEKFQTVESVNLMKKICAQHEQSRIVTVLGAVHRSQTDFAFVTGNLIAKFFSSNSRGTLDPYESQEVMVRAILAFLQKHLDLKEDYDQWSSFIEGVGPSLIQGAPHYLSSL
Chain of Diacylglycerol lipase-beta (Mus musculus) (Q91WC9 whole entry, looked up): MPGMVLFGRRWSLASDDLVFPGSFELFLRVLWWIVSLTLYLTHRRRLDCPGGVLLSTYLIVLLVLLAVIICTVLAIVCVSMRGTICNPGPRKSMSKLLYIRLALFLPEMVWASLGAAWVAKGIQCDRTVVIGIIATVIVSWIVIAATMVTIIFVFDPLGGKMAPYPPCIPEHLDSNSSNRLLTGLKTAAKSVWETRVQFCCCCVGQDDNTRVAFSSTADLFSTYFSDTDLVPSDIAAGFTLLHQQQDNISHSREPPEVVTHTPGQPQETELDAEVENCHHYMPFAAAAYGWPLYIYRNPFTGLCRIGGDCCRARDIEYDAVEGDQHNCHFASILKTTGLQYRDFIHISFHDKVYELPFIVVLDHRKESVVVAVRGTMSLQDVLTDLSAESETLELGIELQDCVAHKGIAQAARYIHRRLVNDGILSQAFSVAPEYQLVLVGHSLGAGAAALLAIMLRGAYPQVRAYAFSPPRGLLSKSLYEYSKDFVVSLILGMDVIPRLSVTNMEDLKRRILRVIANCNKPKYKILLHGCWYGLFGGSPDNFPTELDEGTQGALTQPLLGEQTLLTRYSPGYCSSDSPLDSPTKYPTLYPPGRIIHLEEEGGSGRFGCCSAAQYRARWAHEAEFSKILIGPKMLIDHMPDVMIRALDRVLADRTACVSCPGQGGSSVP
Chain of Palmitoyl-protein thioesterase ABHD10, mitochondrial (Mus musculus) (Q6PE15 whole entry, looked up): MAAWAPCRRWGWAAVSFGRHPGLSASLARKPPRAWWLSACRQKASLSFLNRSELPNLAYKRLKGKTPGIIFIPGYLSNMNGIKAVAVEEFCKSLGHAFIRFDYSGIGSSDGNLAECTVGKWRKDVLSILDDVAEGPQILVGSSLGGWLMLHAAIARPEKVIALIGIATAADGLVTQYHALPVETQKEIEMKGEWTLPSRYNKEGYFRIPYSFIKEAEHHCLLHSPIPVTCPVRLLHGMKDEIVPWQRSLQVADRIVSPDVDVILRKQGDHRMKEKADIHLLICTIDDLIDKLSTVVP
Chain of Prolyl endopeptidase (Mus musculus) (Q9QUR6 whole entry, looked up): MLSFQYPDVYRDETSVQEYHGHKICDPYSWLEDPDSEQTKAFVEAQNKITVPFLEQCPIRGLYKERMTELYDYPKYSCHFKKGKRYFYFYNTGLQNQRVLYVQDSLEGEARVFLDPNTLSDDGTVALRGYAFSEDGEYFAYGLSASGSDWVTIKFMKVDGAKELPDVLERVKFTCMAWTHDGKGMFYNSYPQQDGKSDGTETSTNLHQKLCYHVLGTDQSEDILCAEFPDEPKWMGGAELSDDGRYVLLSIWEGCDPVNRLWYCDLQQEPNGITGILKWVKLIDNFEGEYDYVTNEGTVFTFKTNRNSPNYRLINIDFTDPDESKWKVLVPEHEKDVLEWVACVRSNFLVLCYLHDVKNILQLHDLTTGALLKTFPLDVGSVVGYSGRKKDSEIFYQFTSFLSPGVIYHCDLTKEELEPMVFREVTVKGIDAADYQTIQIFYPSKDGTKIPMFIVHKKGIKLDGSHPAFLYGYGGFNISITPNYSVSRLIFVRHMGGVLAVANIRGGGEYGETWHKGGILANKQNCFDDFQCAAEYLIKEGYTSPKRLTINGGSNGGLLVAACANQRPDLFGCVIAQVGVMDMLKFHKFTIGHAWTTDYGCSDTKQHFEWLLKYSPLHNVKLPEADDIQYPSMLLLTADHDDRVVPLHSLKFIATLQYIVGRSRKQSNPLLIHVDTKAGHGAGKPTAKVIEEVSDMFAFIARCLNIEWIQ

With `CC[C@@]1(c2ccc(C)cc2)C(=O)N(C(=O)OC(C)C)N1C(=O)OC(C)C` the SILAC ratio (treated/control) (Abhd11) was 1 (inactive), the SILAC ratio (treated/control) (Abhd12) was 0.9 (inactive) and the SILAC ratio (treated/control) (Abhd13) was 0.84 (inactive). The SILAC ratio (treated/control) (Ache) was 0.9 (inactive), the SILAC ratio (treated/control) (Acot2) was 1 (inactive) and the SILAC ratio (treated/control) (Acot7) was 1.05 (inactive). The SILAC ratio (treated/control) (Acot9) was 1.1 (inactive), the SILAC ratio (treated/control) [1] was 1.14 (inactive) and the SILAC ratio (treated/control) (Apeh) was 1.07 (inactive). For the same compound, the SILAC ratio (treated/control) (Bat5) was 1.02 (inactive), the SILAC ratio (treated/control) (Ctsa) was 0.81 (inactive) and the SILAC ratio (treated/control) (Ddhd2) was 0.99 (inactive). For the same compound, the SILAC ratio (treated/control) [2] was 0.96 (inactive), the SILAC ratio (treated/control) (Dpp7) was 0.97 (inactive) and the SILAC ratio (treated/control) (Dpp8) was 1.48 (inactive). For the same compound, the SILAC ratio (treated/control) (Dpp9) was 1.08 (inactive), the SILAC ratio (treated/control) (Esd) was 1.04 (inactive) and the SILAC ratio (treated/control) (Faah) was 0.94 (inactive). For the same compound, the SILAC ratio (treated/control) (Fam108a) was 1.16 (inactive), the SILAC ratio (treated/control) (Fam108b1) was 1.05 (inactive) and the SILAC ratio (treated/control) (Fam108c1) was 0.93 (inactive). The SILAC ratio (treated/control) (Fasn) was 1.1 (inactive), the SILAC ratio (treated/control) (Htra2) was 0.98 (inactive) and the SILAC ratio (treated/control) (Iah1) was 0.95 (inactive). The SILAC ratio (treated/control) (Lactb) was 0.85 (inactive), the SILAC ratio (treated/control) (Lipe) was 1.13 (inactive) and the SILAC ratio (treated/control) (Lypla2) was 1.07 (inactive). For the same compound, the SILAC ratio (treated/control) (Lyplal1) was 1.06 (inactive), the SILAC ratio (treated/control) [3] was 0.87 (inactive) and the SILAC ratio (treated/control) (Nceh1) was 1.03 (inactive). For the same compound, the SILAC ratio (treated/control) (Pafah1b2) was 1.06 (inactive), the SILAC ratio (treated/control) (Pafah1b3) was 1.06 (inactive) and the SILAC ratio (treated/control) [4] was 0.02. For the same compound, the SILAC ratio (treated/control) (Parl) was 0.96 (inactive), the SILAC ratio (treated/control) (Pgap1) was 0.92 (inactive) and the SILAC ratio (treated/control) (Pla2g15) was 1 (inactive). For the same compound, the SILAC ratio (treated/control) (Pla2g6) was 1.06 (inactive), the SILAC ratio (treated/control) [5] was 1.06 (inactive) and the SILAC ratio (treated/control) (Pme1) was 1.06 (inactive). For the same compound, the SILAC ratio (treated/control) (Pnpla6) was 1.32 (inactive), the SILAC ratio (treated/control) (Pnpla7) was 1.01 (inactive) and the SILAC ratio (treated/control) (Pnpla8) was 0.97 (inactive). For the same compound, the SILAC ratio (treated/control) (Ppt2) was 1.04 (inactive), the SILAC ratio (treated/control) (Prcp) was 0.94 (inactive) and the SILAC ratio (treated/control) (Prepl) was 1.05 (inactive). For the same compound, the SILAC ratio (treated/control) [6] was 1.01 (inactive), the SILAC ratio (treated/control) (Qrsl1) was 0.96 (inactive) and the SILAC ratio (treated/control) (Rbbp9) was 1.07 (inactive). The SILAC ratio (treated/control) (Sec23ip) was 1.17 (inactive) and the SILAC ratio (treated/control) (Serhl) was 0.9 (inactive).
